Data published in PubChem BioAssay AID1963866 (Molecular Pharmacology Branch, DTP, NCI, 2024).

Test system: PDC KRAS tumor spheroids with HUVEC/MSC, viability
Experiment: Anticancer human tumor 349418-098-R-PDC patient-derived lung adenocarcinoma cell line growth inhibition [KRAS2]
Conditions: for IC50: curve of first compound; for viability, T/C: stronger effect = lower value; active means viability on the fitted dose curve at most 10% of control; inactive means the rest
Procedure, shortened: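 Combination screen of spheroid viability in tumor-cell co-cultures with endothelial (HUVEC) and mesenchymal stem cell stroma. Each agent was tested in half-log dilutions, topping at clinical Cmax or at 10 microM without a known Cmax.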

[1] = second compound 0.1 µM, first compound 0.0316 µM
[2] = second compound 0.1 µM, first compound 0.1 µM
[3] = second compound 0.316 µM, first compound 0.0316 µM
[4] = second compound 0.316 µM, first compound 0.1 µM
[5] = second compound 1 µM, first compound 0.0316 µM
[6] = second compound 1 µM, first compound 0.1 µM
[7] = second compound 3.16 µM, first compound 0.0316 µM
[8] = second compound 3.16 µM, first compound 0.1 µM
[9] = second compound 10 µM, first compound 0.0316 µM
[10] = second compound 10 µM, first compound 0.1 µM
[11] = second compound 0.1 µM, first compound 0.316 µM
[12] = second compound 0.1 µM, first compound 1 µM
[13] = second compound 0.1 µM, first compound 3.16 µM
[14] = second compound 0.1 µM, first compound 10 µM
[15] = second compound 0.316 µM, first compound 0.316 µM
[16] = second compound 0.316 µM, first compound 1 µM
[17] = second compound 0.316 µM, first compound 3.16 µM
[18] = second compound 0.316 µM, first compound 10 µM
[19] = second compound 1 µM, first compound 0.316 µM
[20] = second compound 1 µM, first compound 1 µM
[21] = second compound 1 µM, first compound 3.16 µM
[22] = second compound 1 µM, first compound 10 µM
[23] = second compound 3.16 µM, first compound 0.316 µM
[24] = second compound 3.16 µM, first compound 1 µM
[25] = second compound 3.16 µM, first compound 3.16 µM
[26] = second compound 3.16 µM, first compound 10 µM
[27] = second compound 10 µM, first compound 0.316 µM
[28] = second compound 10 µM, first compound 1 µM
[29] = second compound 10 µM, first compound 3.16 µM
[30] = second compound 10 µM, first compound 10 µM
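Further: spheroids exposed to compounds for seven days before readout.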

Cn1ncnc1[C@H]1c2n[nH]c(=O)c3cc(F)cc(c23)N[C@@H]1c1ccc(F)cc1 + COc1cc2nc(C)nc(NC(C)c3cc(N)cc(C(F)(F)F)c3)c2cc1OC1CCOC1
> 100 nM: IC50 (second compound 0.1 µM) | IC50 (second compound 0.316 µM) | IC50 (second compound 1 µM) | IC50 (second compound 3.16 µM)
inactive: viability, T/C (second compound 0.1 µM, first compound 0.000316 µM) 103% | viability, T/C (second compound 0.1 µM, first compound 0.001 µM) 99.9% | viability, T/C (second compound 0.1 µM, first compound 0.00316 µM) 100% | viability, T/C (second compound 0.1 µM, first compound 0.01 µM) 95.8% | viability, T/C [1] 91.6% | viability, T/C [2] 82.4% | viability, T/C (second compound 0.316 µM, first compound 0.000316 µM) 97% | viability, T/C (second compound 0.316 µM, first compound 0.001 µM) 92.7% | viability, T/C (second compound 0.316 µM, first compound 0.00316 µM) 97.2% | viability, T/C (second compound 0.316 µM, first compound 0.01 µM) 89.5% | viability, T/C [3] 88.3% | viability, T/C [4] 81.1% | viability, T/C (second compound 1 µM, first compound 0.000316 µM) 97.3% | viability, T/C (second compound 1 µM, first compound 0.001 µM) 97% | viability, T/C (second compound 1 µM, first compound 0.00316 µM) 93.9% | viability, T/C (second compound 1 µM, first compound 0.01 µM) 87.5% | viability, T/C [5] 83.4% | viability, T/C [6] 77.7% | viability, T/C (second compound 3.16 µM, first compound 0.000316 µM) 92.5% | viability, T/C (second compound 3.16 µM, first compound 0.001 µM) 88.6% | viability, T/C (second compound 3.16 µM, first compound 0.00316 µM) 86.3% | viability, T/C (second compound 3.16 µM, first compound 0.01 µM) 85.2% | viability, T/C [7] 74.1% | viability, T/C [8] 78.1% | viability, T/C (second compound 10 µM, first compound 0.000316 µM) 36.2% | viability, T/C (second compound 10 µM, first compound 0.001 µM) 20.6% | viability, T/C (second compound 10 µM, first compound 0.00316 µM) 23% | viability, T/C (second compound 10 µM, first compound 0.01 µM) 23.2% | viability, T/C [9] 31% | viability, T/C [10] 24.3%
< 0.316 nM: IC50 (second compound 10 µM)

CC1(C)CCC(CN2CCN(c3ccc(C(=O)NS(=O)(=O)c4ccc(NCC5CCOCC5)c([N+](=O)[O-])c4)c(Oc4cnc5[nH]ccc5c4)c3)CC2)=C(c2ccc(Cl)cc2)C1 + CNCc1ccccc1-c1csc(C(C)Nc2nc(C)nc3cc(OC)c(OC)cc23)c1
inactive: viability, T/C [1] 101% | viability, T/C [2] 99.7% | viability, T/C [11] 94.6% | viability, T/C [12] 89.7% | viability, T/C [13] 11.3% | viability, T/C [3] 97% | viability, T/C [4] 96.4% | viability, T/C [15] 87% | viability, T/C [16] 82.6% | viability, T/C [17] 11.5% | viability, T/C [5] 74.1% | viability, T/C [6] 66.9% | viability, T/C [19] 72% | viability, T/C [20] 61.6%
1790 nM: IC50 (second compound 0.1 µM)
active: viability, T/C [14] 5.21% | viability, T/C [18] 3.91% | viability, T/C [21] 6.96% | viability, T/C [22] 2.51% | viability, T/C [7] 0.13% | viability, T/C [8] 0.14% | viability, T/C [23] 0.11% | viability, T/C [24] 0.12% | viability, T/C [25] 0.12% | viability, T/C [26] 0.15% | viability, T/C [9] 0.11% | viability, T/C [10] 0.12% | viability, T/C [27] 0.1% | viability, T/C [28] 0.09% | viability, T/C [29] 0.08% | viability, T/C [30] 0.15%
1690 nM: IC50 (second compound 0.316 µM)
< 31.6 nM: IC50 (second compound 3.16 µM) | IC50 (second compound 10 µM)
1280 nM: IC50 (second compound 1 µM)

Cn1nccc1Nc1nccc(-c2cc3c(s2)C(C)(C)N(CCN2CCOCC2)C3=O)n1 + CC1OCC2(CCN(c3cnc(Sc4ccnc(N)c4Cl)c(N)n3)CC2)C1N
44.6 nM: IC50 (second compound 0.316 µM)
inactive: viability, T/C [1] 68.8% | viability, T/C [2] 27% | viability, T/C [11] 17.7% | viability, T/C [3] 61.4% | viability, T/C [4] 23.7% | viability, T/C [5] 51.1% | viability, T/C [6] 18.4% | viability, T/C [7] 54.6% | viability, T/C [8] 19.7% | viability, T/C [9] 47.9% | viability, T/C [10] 18.8%
active: viability, T/C [12] 8.51% | viability, T/C [13] 5.52% | viability, T/C [14] 4.04% | viability, T/C [15] 7.24% | viability, T/C [16] 6.49% | viability, T/C [17] 4.43% | viability, T/C [18] 4.11% | viability, T/C [19] 8.88% | viability, T/C [20] 4.35% | viability, T/C [21] 4.16% | viability, T/C [22] 4.13% | viability, T/C [23] 7.87% | viability, T/C [24] 3.17% | viability, T/C [25] 2.99% | viability, T/C [26] 3.09% | viability, T/C [27] 6.03% | viability, T/C [28] 2.89% | viability, T/C [29] 2.98% | viability, T/C [30] 2.7%
54.2 nM: IC50 (second compound 0.1 µM)
< 31.6 nM: IC50 (second compound 10 µM)
32.5 nM: IC50 (second compound 1 µM)
36.4 nM: IC50 (second compound 3.16 µM)
